Assay results published in patent EP0774461A1, “Excitatory amino acid derivatives” (ELI LILLY AND COMPANY, priority 1995, dated 1997).
pIC50: −log10 of the molar value.

System: metabotropic glutamate receptors
Test: displacement of 1S,3R-ACPD-sensitive [3H]glutamate binding to rat brain cell membranes
Settings: selective displacement of 1S,3R-ACPD-sensitive [3H]glutamate binding; crude membranes of rat forebrain
Description: The binding of [^3H]glutamate was conducted with crude membranes of rat forebrain as described by Schoepp and True. Schoepp and True, Neuroscience Lett., 145, 100-104 (1992) and Wright et al., J. Neurochemistry 63: 938-945 (1994).

- pIC50: 7.26
Structure (SMILES): N[C@]1(C(=O)O)CO[C@@H]2[C@@H](C(=O)O)[C@@H]21 (racemic) [Example 1, 1SR,4SR,5RS,6SR-4-Amino-2-Oxabicyclo[3.1.0]hexane-4,6-dicarboxylic Acid]
